The IC50 is the concentration that gives 50% inhibition.

The values below come from patent US20220235032A1 (GENFLEET THERAPEUTICS (SHANGHAI) INC., priority 2019, published 2022).

Test [1] deals with U937 cells. Kind of test: Inhibitory activity against programmed necroptosis of U937 cells induced by TNF-α and Q-VD-Oph (CellTiter-Glo). In kind it is cell-based. Particulars: Homo sapiens, U-937, 48 h, Celltiter-Glo survival rate. The procedure:
The U937 cell strain which was used in the following Testing Examples was derived from ATCC, No.: CRL-1593.2, batch No.: 63479999, culture medium: RPMI-1640+10% FBS.
The compound to be tested was dissolved in DMSO, and diluted with DMSO to a series of gradient concentrations. The U937 cells were inoculated in a 384-well plate at 5000/well. The compound at respective concentration was added to each of the wells, and was mixed with the cells homogeneously. Human TNF-α and Q-VD-Oph were added simultaneously to induce programmed necroptosis of the cells. The cells were placed in the incubator at 37° C. and 5% CO2 for further culture of 48 h. Celltiter-Glo reagent was used for detection. After adequate pyrolysis reaction, the chemiluminescence readout value was recorded by a microplate reader. The survival rate was calculated from the detection results using the equation as follows: SR (%)=(RLU compound−RLU blank)/(RLU high control−RLU blank)×100%. The survival rate was plotted against the final concentration of respective compound using a 4-parameter fitting to calculate the inhibitory C50 of the compound against programmed necroptosis of cells induced by TNF-α.
(ATP-based viability assays read luminescence as a measure of living cells.)

The target of test [2] is T1, RIPK1 enzyme (Homo sapiens, UniProt Q13546).
T1 construct: purchased Eurofins 16-022
T1 sequence (Q13546 1-671): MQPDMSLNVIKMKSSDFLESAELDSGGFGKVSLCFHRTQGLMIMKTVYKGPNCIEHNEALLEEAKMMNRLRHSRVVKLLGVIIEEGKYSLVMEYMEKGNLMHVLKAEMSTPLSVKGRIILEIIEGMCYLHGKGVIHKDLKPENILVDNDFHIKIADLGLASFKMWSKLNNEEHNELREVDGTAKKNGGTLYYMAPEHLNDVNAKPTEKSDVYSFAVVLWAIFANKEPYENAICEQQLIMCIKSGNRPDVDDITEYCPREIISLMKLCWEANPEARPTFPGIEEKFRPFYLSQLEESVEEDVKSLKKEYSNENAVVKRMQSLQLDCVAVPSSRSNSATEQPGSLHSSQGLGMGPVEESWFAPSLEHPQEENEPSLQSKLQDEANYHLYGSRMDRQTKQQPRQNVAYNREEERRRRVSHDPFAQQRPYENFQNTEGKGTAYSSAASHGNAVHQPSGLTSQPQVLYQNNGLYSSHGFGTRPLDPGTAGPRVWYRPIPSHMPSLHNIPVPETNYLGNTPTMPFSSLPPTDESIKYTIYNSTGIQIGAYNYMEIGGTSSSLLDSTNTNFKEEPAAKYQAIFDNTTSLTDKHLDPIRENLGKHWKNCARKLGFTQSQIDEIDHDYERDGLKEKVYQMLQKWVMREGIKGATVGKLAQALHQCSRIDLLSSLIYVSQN
Nature of the test: Inhibitory activity of the compounds against RIPK1 enzyme (P33-ATP, MBP substrate). Particulars: 36 nM RIPK1, substrate MBP, 10 mM magnesium ion, P33-labeled ATP, 2 h room temperature; read-out: RIPK1 enzyme inhibitory activety IC50. It counts as biochemical. Here is the method: The compound to be tested was dissolved in DMSO, and diluted in 3.16 folds with DMSO to a series of gradient concentrations. Then, the solution was diluted with MOPS buffer pH 7.0 to the final concentration. The resultant working solution was mixed with 36 nM RIPK1 (final concentration) and the substrate MBP homogeneously. Thereafter, 10 mM magnesium ion and P^33 isotopically labeled ATP were added for the reaction. After the reaction was carried out at room temperature for 2 h, phosphoric acid was added to terminate the reaction. The final reaction system was tested using a liquid scintillation counter after treatment. The […] for the tested result and a positive control group were converted to activity percentage. The activity percentage was plotted against the final concentration of respective compound using a 4-parameter fitting to obtain the inhibitory IC50 of the compound against RIPK1 enzyme.

For `N#Cc1cc(N2CC3CC(C(=O)N4N=CCC4c4ccccc4)CC3C2)ncn1` (stereo not shown) [Compound Z-72, 6-(5-(5-phenyl-4,5-dihydro-1H-pyrazole-1-carbonyl)hexahydrocyclopenta[C]pyrrol-2(1H)-yl)pyrimidine-4-carbonitrile], the IC50 in test [1] was found to be 0.03 µM; in test [2] it was 0.168 µM.

Take `N#Cc1cc(N2CC3CC(C(=O)N4N=CCC4c4ccccc4)CC3C2)ncn1` (single isomer, unassigned) [Compound Z-9-1]: the results for the IC50 in test [1] and in test [2] were 0.157 µM and 0.029 µM, respectively.
